Measurements from ChEMBL document CHEMBL4334472, “Multi-target-directed-ligands acting as enzyme inhibitors and receptor ligands” (Eur J Med Chem, 2019).

How the values were obtained:
[1] = molecular target: Amine oxidase [flavin-containing] A (Homo sapiens, UniProt P21397); assay: Inhibition of human MAOA
Cholinesterase [2] = molecular target: T1, Cholinesterase (Homo sapiens, UniProt P06276); assay: Inhibition of recombinant human BChE using butyrylthiocholine iodide as substrate preincubated for 5 mins followed by substrate addition measured after 5 mins
[3] = molecular target: 5-hydroxytryptamine receptor 6 (Homo sapiens, UniProt P50406); assay: Displacement of [3H]-LSD from recombinant human 5HT6 receptor expressed in CHOK1 cells measured after 60 mins by microbeta scintillation counting method; format: cell-based
Histamine H3 receptor = Histamine H3 receptor (Homo sapiens, UniProt Q9Y5N1); assay: Inhibition of human histamine H3 receptor
Acetylcholinesterase [4] = molecular target: T2, Acetylcholinesterase (Homo sapiens, UniProt P22303); assay: Inhibition of human AChE
Cholinesterase [5] = molecular target: Cholinesterase (Equus caballus, UniProt P81908); assay: Inhibition of equine BChE
Beta-secretase 1 = Beta-secretase 1 (Homo sapiens, UniProt P56817); assay: Inhibition of BACE1 (unknown origin) using EVNLDAEF as substrate by fluorescence assay
[6] = molecular target: Amyloid-beta precursor protein (Homo sapiens) (UniProt P05067); assay: Inhibition of amyloid beta (1 to 42 residues) (unknown origin) self aggregation at 10 uM ThT-based fluorescence assay relative to control
[7] = Inhibition of nAChR (unknown origin) after 1 to 2 mins; design: species or system Homo sapiens
Cholinesterase [8] = molecular target: T1, Cholinesterase; assay: Inhibition of human BChE
[9] = molecular target: Muscarinic acetylcholine receptor M1 (Homo sapiens, UniProt P11229); assay: Inhibition of M1R (unknown origin)
Acetylcholinesterase [10] = molecular target: Acetylcholinesterase (Rattus norvegicus, UniProt P37136); assay: Inhibition of rat AChE
[11] = molecular target: 5-hydroxytryptamine receptor 1A (Mus musculus, UniProt Q64264); assay: Agonist activity at mouse 5-HT1A expressed in HEK293 cells after 2 to 5 mins; format: cell-based
[12] = molecular target: Sodium-dependent serotonin transporter (Homo sapiens, UniProt P31645); assay: Inhibition of 5HTT (unknown origin)
Butyrylcholinesterase = Butyrylcholinesterase (Rattus norvegicus, UniProt Q9JKC1); assay: Inhibition of rat BChE
[13] = molecular target: Neuronal acetylcholine receptor subunit alpha-7 (Homo sapiens, UniProt P36544); assay: Inhibition of alpha7 nAChR (unknown origin)
[14] = molecular target: Neuronal acetylcholine receptor; alpha4/beta2 (Homo sapiens, UniProt P17787+P43681); assay: Inhibition of alpha4beta2 nAChR (unknown origin); format: protein-complex assay
[15] = molecular target: Prostaglandin G/H synthase 1 (Ovis aries, UniProt P05979); assay: Inhibition of ovine COX1
[16] = molecular target: Transient receptor potential cation channel subfamily V member 1 (Homo sapiens, UniProt Q8NER1); assay: Inhibition of TRPV1 (unknown origin)
[17] = molecular target: Prostaglandin G/H synthase 2 (Ovis aries, UniProt P79208); assay: Inhibition of ovine COX2
[18] = molecular target: Amine oxidase [flavin-containing] B (Homo sapiens, UniProt P27338); assay: Inhibition of human MAOB
Acetylcholinesterase [19] = molecular target: T2, Acetylcholinesterase; assay: Inhibition of recombinant human AChE using acetylthiocholine iodide as substrate preincubated for 5 mins followed by substrate addition measured after 5 mins
[20] = molecular target: Thromboxane A2 receptor (Homo sapiens) (UniProt P21731); assay: Antagonist activity at TP receptor in human washed platelet assessed as U46619 induced platelet aggregation after 6 mins; design: scale not given: the % may be the effect or the level left
[21] = molecular target: Prostaglandin G/H synthase 1 (Homo sapiens, UniProt P23219); assay: Inhibition of COX1 in human platelets after 30 mins by mass spectrometry analysis
[22] = molecular target: Prostaglandin G/H synthase 2 (Homo sapiens, UniProt P35354); assay: Inhibition of COX2 in lympho-monocytes (unknown origin) preincubated for 30 mins followed by LPS challenged measured after 24 hrs by EIA; format: cell-based
Prostaglandin G/H synthase 2 (Homo sapiens, UniProt P35354), sequence (P35354 whole entry): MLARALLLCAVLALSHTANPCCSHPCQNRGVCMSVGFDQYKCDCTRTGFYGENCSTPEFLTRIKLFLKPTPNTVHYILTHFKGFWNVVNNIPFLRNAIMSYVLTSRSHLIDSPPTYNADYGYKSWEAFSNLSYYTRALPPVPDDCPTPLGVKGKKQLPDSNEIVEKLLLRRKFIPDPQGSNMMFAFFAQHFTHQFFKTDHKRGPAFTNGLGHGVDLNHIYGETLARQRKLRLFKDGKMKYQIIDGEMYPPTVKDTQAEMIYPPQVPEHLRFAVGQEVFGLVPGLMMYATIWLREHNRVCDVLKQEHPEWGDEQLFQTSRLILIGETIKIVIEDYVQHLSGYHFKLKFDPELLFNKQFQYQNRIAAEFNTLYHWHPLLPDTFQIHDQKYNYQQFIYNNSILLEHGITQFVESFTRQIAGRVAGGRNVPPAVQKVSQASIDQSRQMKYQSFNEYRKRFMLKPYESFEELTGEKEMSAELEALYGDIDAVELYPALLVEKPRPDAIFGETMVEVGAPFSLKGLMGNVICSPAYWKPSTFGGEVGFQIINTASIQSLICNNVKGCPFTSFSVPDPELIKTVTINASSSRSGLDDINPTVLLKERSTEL

T2 sequence (P22303 whole entry): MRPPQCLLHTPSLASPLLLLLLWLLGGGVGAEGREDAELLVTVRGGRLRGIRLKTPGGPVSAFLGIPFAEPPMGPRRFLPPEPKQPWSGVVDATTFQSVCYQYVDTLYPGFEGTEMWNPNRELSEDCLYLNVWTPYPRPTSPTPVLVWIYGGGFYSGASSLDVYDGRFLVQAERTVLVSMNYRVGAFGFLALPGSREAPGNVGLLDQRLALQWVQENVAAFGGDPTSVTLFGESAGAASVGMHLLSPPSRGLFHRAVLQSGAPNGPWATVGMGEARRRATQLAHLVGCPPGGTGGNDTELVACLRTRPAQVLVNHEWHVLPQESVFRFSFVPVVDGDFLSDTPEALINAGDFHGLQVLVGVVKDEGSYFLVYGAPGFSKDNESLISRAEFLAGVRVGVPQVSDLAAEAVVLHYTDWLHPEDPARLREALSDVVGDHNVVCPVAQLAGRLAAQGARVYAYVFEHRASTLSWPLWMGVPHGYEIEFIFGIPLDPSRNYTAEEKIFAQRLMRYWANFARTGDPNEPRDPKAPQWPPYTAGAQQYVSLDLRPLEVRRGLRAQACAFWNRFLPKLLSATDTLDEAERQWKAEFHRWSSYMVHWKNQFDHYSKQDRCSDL
T1 sequence (P06276 whole entry): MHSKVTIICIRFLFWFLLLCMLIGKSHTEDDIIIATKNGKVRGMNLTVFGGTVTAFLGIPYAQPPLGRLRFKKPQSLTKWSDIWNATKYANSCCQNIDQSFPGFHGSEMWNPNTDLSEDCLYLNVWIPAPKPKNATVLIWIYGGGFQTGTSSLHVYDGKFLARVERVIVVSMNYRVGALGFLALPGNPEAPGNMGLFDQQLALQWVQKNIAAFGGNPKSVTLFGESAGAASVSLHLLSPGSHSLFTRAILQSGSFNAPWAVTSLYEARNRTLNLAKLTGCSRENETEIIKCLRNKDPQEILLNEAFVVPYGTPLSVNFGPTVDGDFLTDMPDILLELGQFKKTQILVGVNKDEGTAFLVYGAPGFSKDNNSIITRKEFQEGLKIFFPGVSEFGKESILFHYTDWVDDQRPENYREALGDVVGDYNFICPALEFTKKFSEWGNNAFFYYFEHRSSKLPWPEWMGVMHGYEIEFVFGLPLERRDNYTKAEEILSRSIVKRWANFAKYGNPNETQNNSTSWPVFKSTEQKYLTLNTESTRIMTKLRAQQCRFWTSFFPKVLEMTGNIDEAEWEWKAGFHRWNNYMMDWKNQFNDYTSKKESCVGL
Thromboxane A2 receptor (Homo sapiens), sequence (P21731 whole entry): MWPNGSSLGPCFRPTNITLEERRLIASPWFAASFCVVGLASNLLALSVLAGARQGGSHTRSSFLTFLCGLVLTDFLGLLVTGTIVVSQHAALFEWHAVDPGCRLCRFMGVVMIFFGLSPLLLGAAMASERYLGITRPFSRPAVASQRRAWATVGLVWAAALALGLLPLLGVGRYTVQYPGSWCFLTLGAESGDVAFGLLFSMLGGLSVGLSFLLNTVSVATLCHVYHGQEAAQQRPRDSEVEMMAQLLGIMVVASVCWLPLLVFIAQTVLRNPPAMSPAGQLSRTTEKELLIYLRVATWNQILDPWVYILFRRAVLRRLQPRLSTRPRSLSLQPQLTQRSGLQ
Prostaglandin G/H synthase 1 (Homo sapiens, UniProt P23219), sequence (P23219 whole entry): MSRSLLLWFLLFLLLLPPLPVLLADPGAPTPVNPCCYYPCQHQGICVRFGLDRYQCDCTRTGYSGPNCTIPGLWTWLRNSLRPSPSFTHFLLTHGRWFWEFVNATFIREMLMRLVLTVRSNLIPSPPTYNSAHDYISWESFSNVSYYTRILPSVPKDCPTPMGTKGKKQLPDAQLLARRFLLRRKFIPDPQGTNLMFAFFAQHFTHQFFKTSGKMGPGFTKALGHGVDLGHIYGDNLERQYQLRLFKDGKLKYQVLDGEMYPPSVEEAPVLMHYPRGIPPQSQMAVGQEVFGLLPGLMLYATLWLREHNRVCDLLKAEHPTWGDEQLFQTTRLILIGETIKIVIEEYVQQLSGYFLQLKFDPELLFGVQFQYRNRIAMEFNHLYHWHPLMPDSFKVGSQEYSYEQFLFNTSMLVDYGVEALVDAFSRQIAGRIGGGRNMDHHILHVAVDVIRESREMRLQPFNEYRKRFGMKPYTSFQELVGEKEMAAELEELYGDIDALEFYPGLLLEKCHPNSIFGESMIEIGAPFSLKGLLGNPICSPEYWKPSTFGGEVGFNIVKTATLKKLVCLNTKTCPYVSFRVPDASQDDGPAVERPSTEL
Amyloid-beta precursor protein (Homo sapiens), sequence (P05067 whole entry, the tested form may be a part): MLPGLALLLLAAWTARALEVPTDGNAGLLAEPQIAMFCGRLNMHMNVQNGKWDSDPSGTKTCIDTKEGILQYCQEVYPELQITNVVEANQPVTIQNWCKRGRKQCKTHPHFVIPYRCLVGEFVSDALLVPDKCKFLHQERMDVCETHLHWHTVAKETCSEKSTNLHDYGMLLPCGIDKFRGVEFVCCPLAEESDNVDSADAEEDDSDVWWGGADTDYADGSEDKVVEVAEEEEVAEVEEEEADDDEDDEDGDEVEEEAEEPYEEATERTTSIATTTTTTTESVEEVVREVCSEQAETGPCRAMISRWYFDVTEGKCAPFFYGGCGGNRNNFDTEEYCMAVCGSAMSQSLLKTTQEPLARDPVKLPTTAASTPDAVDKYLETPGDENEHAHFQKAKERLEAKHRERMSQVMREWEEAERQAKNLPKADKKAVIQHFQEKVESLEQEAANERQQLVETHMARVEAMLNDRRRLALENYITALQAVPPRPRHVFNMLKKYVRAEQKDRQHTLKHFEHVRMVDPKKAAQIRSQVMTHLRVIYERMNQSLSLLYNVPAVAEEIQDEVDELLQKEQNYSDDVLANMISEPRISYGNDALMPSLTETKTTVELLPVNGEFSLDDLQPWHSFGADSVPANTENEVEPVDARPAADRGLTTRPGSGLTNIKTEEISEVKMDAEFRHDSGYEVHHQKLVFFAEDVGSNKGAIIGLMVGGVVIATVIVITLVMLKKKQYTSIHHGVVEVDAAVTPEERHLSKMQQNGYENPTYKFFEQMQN
5-hydroxytryptamine receptor 6, sequence (P50406 whole entry): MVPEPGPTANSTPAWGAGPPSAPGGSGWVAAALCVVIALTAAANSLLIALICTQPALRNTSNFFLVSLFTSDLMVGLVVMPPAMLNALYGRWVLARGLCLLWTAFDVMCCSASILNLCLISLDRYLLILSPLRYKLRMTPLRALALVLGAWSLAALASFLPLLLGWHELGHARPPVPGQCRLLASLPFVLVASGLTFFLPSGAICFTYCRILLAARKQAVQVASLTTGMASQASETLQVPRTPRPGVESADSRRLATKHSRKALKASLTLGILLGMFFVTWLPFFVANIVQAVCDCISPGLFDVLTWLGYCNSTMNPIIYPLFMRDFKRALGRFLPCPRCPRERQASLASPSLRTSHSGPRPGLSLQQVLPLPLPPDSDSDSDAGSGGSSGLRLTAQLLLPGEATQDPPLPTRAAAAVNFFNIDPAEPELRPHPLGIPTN
Neuronal acetylcholine receptor subunit alpha-7, sequence (P36544 whole entry): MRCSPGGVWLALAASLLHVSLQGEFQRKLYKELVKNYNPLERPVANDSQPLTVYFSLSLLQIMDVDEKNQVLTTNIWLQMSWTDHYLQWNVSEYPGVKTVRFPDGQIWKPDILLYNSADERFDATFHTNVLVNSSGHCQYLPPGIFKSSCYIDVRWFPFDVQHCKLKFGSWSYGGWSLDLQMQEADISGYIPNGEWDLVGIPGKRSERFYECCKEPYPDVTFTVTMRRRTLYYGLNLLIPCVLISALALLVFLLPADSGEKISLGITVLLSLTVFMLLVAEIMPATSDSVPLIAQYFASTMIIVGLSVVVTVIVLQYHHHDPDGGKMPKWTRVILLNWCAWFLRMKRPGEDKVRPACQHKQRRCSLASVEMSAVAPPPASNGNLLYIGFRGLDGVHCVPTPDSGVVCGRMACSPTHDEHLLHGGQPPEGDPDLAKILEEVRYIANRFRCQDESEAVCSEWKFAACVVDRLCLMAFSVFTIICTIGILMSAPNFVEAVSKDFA
Amine oxidase [flavin-containing] A, sequence (P21397 whole entry): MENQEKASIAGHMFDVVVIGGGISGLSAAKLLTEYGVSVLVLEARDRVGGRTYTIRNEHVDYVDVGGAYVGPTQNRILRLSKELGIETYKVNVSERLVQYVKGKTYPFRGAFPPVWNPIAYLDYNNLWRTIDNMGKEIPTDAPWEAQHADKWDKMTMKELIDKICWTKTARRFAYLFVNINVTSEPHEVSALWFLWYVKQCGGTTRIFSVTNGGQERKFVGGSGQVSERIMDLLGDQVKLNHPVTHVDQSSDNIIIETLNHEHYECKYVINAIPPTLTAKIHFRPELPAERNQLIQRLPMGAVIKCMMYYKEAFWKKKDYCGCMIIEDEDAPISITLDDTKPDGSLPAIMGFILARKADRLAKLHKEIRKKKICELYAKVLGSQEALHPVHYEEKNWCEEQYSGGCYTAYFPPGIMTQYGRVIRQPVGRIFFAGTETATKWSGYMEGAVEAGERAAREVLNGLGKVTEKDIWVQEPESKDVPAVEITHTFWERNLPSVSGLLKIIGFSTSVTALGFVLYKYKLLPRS

Q: For `C#CCN(C)Cc1cc2cc(OCCCC3CCN(Cc4ccccc4)CC3)ccc2n1C`, which IC50 [1] is on record?
A: 0.3 nM

Q: What does the source list for `CN(CCCN1CCN(c2cccc3c2ccn3Cc2ccccc2)CC1)Cc1ccccc1`?
A: IC50 (Cholinesterase [2]): 196 nM; Ki [3]: 240 nM

Q: Which Ki (Histamine H3 receptor) does the source give for `O=c1c2cc(OCCCN3CCCCC3)ccc2nc2n1CCC2` here?
A: 2500 nM

Q: And the IC50 (Acetylcholinesterase [4])?
A: 5400 nM

Q: And the IC50 (Cholinesterase [5])?
A: 248000 nM

Q: Which IC50 (Beta-secretase 1) does the source give for `COc1ccc2nc3c(c(NCCCCCCCCNC(=S)NC45CC6CC(CC(C6)C4)C5)c2c1)CCCC3` here?
A: 18400 nM

Q: And the inhibition [6]?
A: 77%

Q: What about the IC50 (Acetylcholinesterase [4]) of the same compound?
A: 1600 nM

Q: What about the IC50 [7] of the same compound?
A: 1100 nM

Q: And the IC50 (Cholinesterase [8])?
A: 300 nM

Q: What about the IC50 [9] of the same compound?
A: 2200 nM

Q: For `N#Cc1ccc2[nH]cc(CCCCN3CCN(c4c5c(nc6ccccc46)CCCC5)CC3)c2c1`, which IC50 (Acetylcholinesterase [10]) is on record?
A: 76 nM

Q: And the EC50 [11]?
A: 107 nM

Q: What about the IC50 [12] of the same compound?
A: 15.8 nM

Q: And the IC50 (Butyrylcholinesterase)?
A: 3300 nM

Q: For `COc1ccccc1CN1CCN(CCCCCOc2cccc3[nH]c4ccccc4c23)CC1`, which Ki [13] is on record?
A: 66800 nM

Q: What about the inhibition [6] of the same compound?
A: 34%

Q: What about the IC50 (Acetylcholinesterase [4]) of the same compound?
A: 2400 nM

Q: And the IC50 (Cholinesterase [8])?
A: 600 nM

Q: What about the Ki [14] of the same compound?
A: 35300 nM

Q: Which IC50 [15] does the source give for `CC[C@@H](/C=C/[C@@H](C)[C@H]1CC[C@H]2C3=CC[C@H]4C[C@@H](O)CC[C@]4(C)[C@H]3CC[C@]12C)C(C)C` here?
A: 16200 nM

Q: And the IC50 [16]?
A: 1400 nM

Q: And the IC50 [17]?
A: 7800 nM

Q: With `O=C(c1ccc(OCCCc2cnc[nH]2)cc1)C1CC1` [CIPROXIFAN] as the compound, how does the IC50 [18] read?
A: 1900 nM

Q: With `COc1cc2c(cc1OC)-c1cc(OCCN3CCCCC3)nc(=O)n1CC2` as the compound, how does the IC50 (Acetylcholinesterase [4]) read?
A: 5000 nM

Q: Which results are given for `Cc1c(OCc2ccccc2)cccc1N1CCN(CCCCCCNc2c3c(nc4c2CCCC4)CCCC3)CC1`?
A: IC50 (Cholinesterase [2]): 22 nM; IC50 (Acetylcholinesterase [19]): 14 nM; Ki [3]: 18 nM

Q: With `Cc1ccc(Nc2c(F)cccc2Cl)c(CNc2nnn[nH]2)c1` as the compound, how does the Activity [20] read?
A: 5.6%

Q: And the IC50 [21]?
A: 13200 nM

Q: And the IC50 [22]?
A: 14 nM

Q: For `Cc1ccc(Nc2c(F)cccc2Cl)c(CNS(=O)(=O)C(F)(F)F)c1`, which Activity [20] is on record?
A: 5.9%

Q: And the IC50 [21]?
A: 16100 nM

Q: What about the IC50 [22] of the same compound?
A: 400 nM
